# Read-outs that look alike come from different tables or passages of the source.
# Columns and labels:
# [1] = tested on: TNF-α secreted by synoviocyte; test: Content of TNF-α in culture supernatant of synoviocyte of RA model rats given test compound; format: in vivo; conditions: rat RA model, dose 30 mg/kg.2d; normal control 0.38 ± 0.027, NaCl 0.74 ± 0.098
# Outline: (§1)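 Rat RA model: compounds given at 30 mg/kg.2d, with normal control and NaCl groups. Synoviocyte culture supernatants assayed for secreted TNF-α and PGE2 by one referenced method, IL-1β by another.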
# [2] = tested on: IL-1β secreted by synoviocyte; test: Content of IL-1β in culture supernatant of synoviocyte of RA model rats given test compound; format: in vivo; conditions: rat RA model, dose 30 mg/kg.2d; normal control 0.16 ± 0.034, NaCl 0.49 ± 0.136
# Outline: as §1
# [3] = tested on: PGE2 secreted by synoviocyte; test: Content of PGE2 in culture supernatant of synoviocyte of RA model rats given test compound; format: in vivo; conditions: rat RA model, dose 30 mg/kg.2d; normal control 8.34 ± 1.29, NaCl 32.44 ± 10.32
# Outline: as §1
# cancer stem cells = test: Survival rate of cancer stem cells after test compound is added (flow cytometry, Annexin V-FITC/PI, clinical specimen); format: cell-based, patient; conditions: Homo sapiens, 18 h
# Excerpt: (§2) Take fresh or cryopreserved clinical specimen (acute myelogenous leukemia (AML, marker is CD34^+/CD38^+), chronic myelogenous leukemia (CML, Ph+/CD34+/CXCR4+), chronic lymphocytic leukemia (CLL,CD133+/CD19−/CD38−), skin cancer (CD34+), breast cancer (CD44+/CD24−/ESA+), ovarian cancer (CD44+/CD117+), brain tumor (CD133+) prostate cancer (CD44+/CD24−), head-neck squamous cell carcinoma (CD44+), laryngeal cancer (CD133+), pancreatic cancer (ESA+/CD44+/CD24+), retinoblastoma (ABCG2/ALDH1), Children hepatoblastoma (CD34+/THY1+/c-kit+), liver cancer (CD133+), malignant melanoma (CD133+), colorectal cancer (EpCAM^high/CD44+), colon adenocarcinoma (CD44^high), glioma (ABCG-2/BCRP1), gastrointestinal tumor (ABCG-2/BCRP1), nasopharynx cancer (ABCG2), brain glioma (Dlk-1/Pref-1), gastric cancer (CD45+), lung adenocarcinoma (Sca-1/CD45-/Pecam-/CD34+), lung cancer (CD133+CD34+CD44+)) of patient. Take the acute myelogenous leukemia as the example, conduct density gradient centrifugation with Ficoll and take out the middle mononuclear cells, re-suspend it with serum-free IMDM after centrifuged. Adjust the concentration of cells into 1×10^6/mL and lay 24-well plate with 1 mL in each well, and then treat 18 hours with the compound to select with corresponding concentration. Collect the cells and centrifuge them at 1500 rps for 8 minutes, re-suspend the precipitation with […], mark the antibodies related to leukemia stem cell, avoid light to incubate 30 minutes at room temperature and then centrifuge it at 1500 rps, then wash away the unbound antibody CD34^+CD38^+. Re-suspend it with 100 μl 1× Binding Buffer and add respectively 5 μl Annexin V-FITC and PI, then avoid light to incubate 15 minutes before add 200 μl 1× Binding Buffer, then use flow cytometry to examine the marked apoptosis within one hour.
# cancer cells = test: Survival rate of cancer cells after test compound is added (flow cytometry, Annexin V-FITC/PI, clinical specimen); format: cell-based, patient; conditions: Homo sapiens, 18 h, read-out: Survival rate (%) All cells (Stem cells and ordinary cells)
# Excerpt: as §2
# [4] = Head and neck squamous cell carcinomas
smiles,measurement,setting,value
C=C1C(=O)O[C@H]2[C@H]1CC[C@@](C)(OC)C1CC[C@@](C)(O)[C@@H]12 (stereo partly drawn) [Compound 47],Content of TNF-α in culture supernatant of synoviocyte (x ± s),[1],0.64 ± 0.062 ng/mL
same,Content of IL-1β in culture supernatant of synoviocyte (x ± s),[2],0.34 ± 0.058 ng/mL
same,Content of PGE2 in culture supernatant of synoviocyte (x ± s),[3],27.95 ± 3.67 ng/mL
same,viability at 10 µM,cancer stem cells; AML,79%
same,viability at 20 µM,cancer stem cells; AML,73%
same,viability at 10 µM,cancer stem cells; Brain glioma,85%
same,viability at 20 µM,cancer stem cells; Brain glioma,79%
same,viability at 10 µM,cancer stem cells; Brain tumor,81%
same,viability at 20 µM,cancer stem cells; Brain tumor,75%
same,viability at 10 µM,cancer stem cells; Breast cancer,82%
same,viability at 20 µM,cancer stem cells; Breast cancer,73%
same,viability at 10 µM,cancer stem cells; CLL,82%
same,viability at 20 µM,cancer stem cells; CLL,73%
same,viability at 10 µM,cancer stem cells; CML,85%
same,viability at 20 µM,cancer stem cells; CML,77%
same,viability at 10 µM,cancer stem cells; Children hepatoblastoma,85%
same,viability at 20 µM,cancer stem cells; Children hepatoblastoma,79%
same,viability at 10 µM,cancer stem cells; Colon adenocarcinoma,88%
same,viability at 20 µM,cancer stem cells; Colon adenocarcinoma,81%
same,viability at 10 µM,cancer stem cells; Colorectal cancer,79%
same,viability at 20 µM,cancer stem cells; Colorectal cancer,72%
same,viability at 10 µM,cancer stem cells; Gastric cancer,82%
same,viability at 20 µM,cancer stem cells; Gastric cancer,76%
same,viability at 10 µM,cancer stem cells; Gastrointestinal tumor,78%
same,viability at 20 µM,cancer stem cells; Gastrointestinal tumor,74%
same,viability at 10 µM,cancer stem cells; Glioma,87%
same,viability at 20 µM,cancer stem cells; Glioma,76%
same,viability at 10 µM,cancer stem cells; [4],86%
same,viability at 20 µM,cancer stem cells; [4],78%
same,viability at 10 µM,cancer stem cells; Laryngeal cancer,85%
same,viability at 20 µM,cancer stem cells; Laryngeal cancer,79%
same,viability at 10 µM,cancer stem cells; Liver cancer,82%
same,viability at 20 µM,cancer stem cells; Liver cancer,73%
same,viability at 10 µM,cancer stem cells; Lung adenocarcinoma,85%
same,viability at 20 µM,cancer stem cells; Lung adenocarcinoma,77%
same,viability at 10 µM,cancer stem cells; Lung cancer,85%
same,viability at 20 µM,cancer stem cells; Lung cancer,79%
same,viability at 10 µM,cancer stem cells; Malignant melanoma,82%
same,viability at 20 µM,cancer stem cells; Malignant melanoma,76%
same,viability at 10 µM,cancer stem cells; Nasopharynx cancer,82%
same,viability at 20 µM,cancer stem cells; Nasopharynx cancer,74%
same,viability at 10 µM,cancer stem cells; Ovarian cancer,84%
same,viability at 20 µM,cancer stem cells; Ovarian cancer,78%
same,viability at 10 µM,cancer stem cells; Pancreatic cancer,84%
same,viability at 20 µM,cancer stem cells; Pancreatic cancer,78%
same,viability at 10 µM,cancer stem cells; Prostate cancer,85%
same,viability at 20 µM,cancer stem cells; Prostate cancer,77%
same,viability at 10 µM,cancer stem cells; Retinoblastoma,81%
same,viability at 20 µM,cancer stem cells; Retinoblastoma,75%
same,viability at 10 µM,cancer stem cells; Skin cancer,84%
same,viability at 20 µM,cancer stem cells; Skin cancer,78%
same,viability at 10 µM,cancer cells; AML,88%
same,viability at 20 µM,cancer cells; AML,82%
same,viability at 10 µM,cancer cells; Brain glioma,93%
same,viability at 20 µM,cancer cells; Brain glioma,86%
same,viability at 10 µM,cancer cells; Brain tumor,87%
same,viability at 20 µM,cancer cells; Brain tumor,83%
same,viability at 10 µM,cancer cells; Breast cancer,91%
same,viability at 20 µM,cancer cells; Breast cancer,87%
same,viability at 10 µM,cancer cells; CLL,91%
same,viability at 20 µM,cancer cells; CLL,87%
same,viability at 10 µM,cancer cells; CML,92%
same,viability at 20 µM,cancer cells; CML,89%
same,viability at 10 µM,cancer cells; Children hepatoblastoma,88%
same,viability at 20 µM,cancer cells; Children hepatoblastoma,85%
same,viability at 10 µM,cancer cells; Colon adenocarcinoma,91%
same,viability at 20 µM,cancer cells; Colon adenocarcinoma,89%
same,viability at 10 µM,cancer cells; Colorectal cancer,88%
same,viability at 20 µM,cancer cells; Colorectal cancer,81%
same,viability at 10 µM,cancer cells; Gastric cancer,88%
same,viability at 20 µM,cancer cells; Gastric cancer,89%
same,viability at 10 µM,cancer cells; Gastrointestinal tumor,89%
same,viability at 20 µM,cancer cells; Gastrointestinal tumor,81%
same,viability at 10 µM,cancer cells; Glioma,94%
same,viability at 20 µM,cancer cells; Glioma,87%
same,viability at 10 µM,cancer cells; [4],93%
same,viability at 20 µM,cancer cells; [4],92%
same,viability at 10 µM,cancer cells; Laryngeal cancer,93%
same,viability at 20 µM,cancer cells; Laryngeal cancer,86%
same,viability at 10 µM,cancer cells; Liver cancer,91%
same,viability at 20 µM,cancer cells; Liver cancer,87%
same,viability at 10 µM,cancer cells; Lung adenocarcinoma,92%
same,viability at 20 µM,cancer cells; Lung adenocarcinoma,89%
same,viability at 10 µM,cancer cells; Lung cancer,93%
same,viability at 20 µM,cancer cells; Lung cancer,86%
same,viability at 10 µM,cancer cells; Malignant melanoma,89%
same,viability at 20 µM,cancer cells; Malignant melanoma,86%
same,viability at 10 µM,cancer cells; Nasopharynx cancer,88%
same,viability at 20 µM,cancer cells; Nasopharynx cancer,85%
same,viability at 10 µM,cancer cells; Ovarian cancer,91%
same,viability at 20 µM,cancer cells; Ovarian cancer,88%
same,viability at 10 µM,cancer cells; Pancreatic cancer,91%
same,viability at 20 µM,cancer cells; Pancreatic cancer,88%
same,viability at 10 µM,cancer cells; Prostate cancer,92%
same,viability at 20 µM,cancer cells; Prostate cancer,89%
same,viability at 10 µM,cancer cells; Retinoblastoma,87%
same,viability at 20 µM,cancer cells; Retinoblastoma,83%
same,viability at 10 µM,cancer cells; Skin cancer,91%
same,viability at 20 µM,cancer cells; Skin cancer,88%

# Source: US10463644B2, “Uses of sesquiterpene lactone compounds and their derivatives in drugs preparation” (ACCENDATECH, priority 2013, dated 2019)
